Reference: PubChem BioAssay (NCI)
“And” between values parts separate entries of the source, which are not always exact repeats. Equal entries are not always repeated.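 Test compounds were applied to cells in 96-well plates for 48 hours at 5 doses. At the GI50, growth is halved. Definition used: TGI = concentration required for complete inhibition of growth.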

Legend:
Assay in all cases: NCI tumour cell line growth inhibition, 48 h
[1] = tested on: SR leukemia
[2] = tested on: A549 NSCLC
[3] = tested on: U251 CNS
[4] = tested on: ACHN renal
[5] = tested on: SNB-78 CNS
[6] = tested on: M19-MEL melanoma
[7] = tested on: UACC-257 melanoma
[8] = tested on: HOP-62 NSCLC
[9] = tested on: SK-OV-3 ovarian
[10] = tested on: HS 578T breast

SMILES: COc1cc(C2C(C(=O)NCc3ccccc3)=C(C)NC(C)=C2C(=O)NCc2ccccc2)ccc1O
- TGI [1]: 54.4 µM
- TGI [2]: > 100 µM
- TGI [3]: 83.2 µM
- TGI [4]: > 100 µM
- TGI [5]: > 100 µM
- TGI [6]: > 100 µM
- TGI [7]: > 100 µM

SMILES: O=C(c1ccccc1)n1cc(/C=C/[N+](=O)[O-])c2ccccc21
- TGI [1]: 44.9 µM
- TGI [2]: > 100 µM
- TGI [8]: > 100 µM
- TGI [3]: 33.3 µM
- TGI [4]: > 100 µM
- TGI [9]: > 100 µM
- TGI [5]: 79.9 µM
- TGI [6]: 38.9 µM
- TGI [7]: 47.3 µM

SMILES: CC[O-].CC[O-].O=C1C=C([O-])C(=O)c2ccccc21.O=C1C=C([O-])C(=O)c2ccccc21.[Ti+4]
- GI50 [2]: 26 µM
- TGI [2]: > 100 µM
- GI50 [8]: > 100 µM
- TGI [8]: > 100 µM
- GI50 [3]: > 100 µM
- TGI [3]: > 100 µM
- GI50 [4]: 71 µM
- TGI [4]: > 100 µM
- GI50 [9]: > 100 µM
- TGI [9]: > 100 µM
- GI50 [6]: 1.61 µM
- TGI [6]: 3.81 µM
- GI50 [7]: > 27.9 µM
- TGI [7]: > 100 µM

SMILES: CCN(N=O)C1C2(CCCC2)NC(=O)C12CCCC2 (stereo unspecified)
- TGI [1]: > 100 µM
- TGI [2]: > 100 µM
- TGI [8]: > 100 µM
- TGI [3]: > 100 µM
- TGI [4]: > 100 µM
- TGI [9]: > 100 µM
- TGI [5]: > 100 µM
- TGI [6]: > 100 µM
- TGI [7]: > 100 µM

SMILES: COc1ccc(OC(=O)N2C/C(=C\c3ccccc3)C(=O)/C(=C/c3ccccc3)C2)cc1
- TGI [10]: 7.33 µM
- TGI [1]: 2.64 µM
- TGI [2]: 38.9 µM
- TGI [8]: 21.4 µM
- TGI [3]: 8.87 µM
- TGI [4]: 14.4 µM
- TGI [9]: 24.9 µM
- TGI [5]: 27.3 µM
- TGI [6]: 2.9 µM
- TGI [7]: 7.71 µM

SMILES: C#CN1C(=O)c2c(c(-c3ccccc3)c(-c3ccc(Oc4ccc(-c5c(-c6ccccc6)c6c(c(-c7ccccc7)c5-c5ccccc5)C(=O)N(C#C)C6=O)cc4)cc3)c(-c3ccccc3)c2-c2ccccc2)C1=O
- TGI [2]: > 100 µM
- TGI [8]: > 100 µM
- TGI [3]: > 100 µM
- TGI [4]: > 100 µM
- TGI [6]: > 100 µM
- TGI [7]: > 100 µM

SMILES: O=C(O)C1=Cc2cccc3cccc(c23)C1=O
- TGI [1]: > 100 µM
- TGI [2]: > 100 µM
- TGI [8]: > 100 µM
- TGI [3]: > 100 µM
- TGI [4]: > 100 µM
- TGI [9]: > 100 µM
- TGI [6]: > 100 µM
- TGI [7]: > 100 µM

SMILES: CCCCCCCCCCCCC(O)C1CCC(C(O)CCCCC(O)CCCCCC2CC(CC(C)=O)C(=O)O2)O1 (stereo unspecified)
- TGI [10]: 3.8 µM
- GI50 [1]: 2.8 µM
- TGI [1]: 6.93 µM and 25.5 µM
- GI50 [2]: 1.55 µM
- TGI [2]: 18.7 µM
- GI50 [8]: 2.74 µM
- TGI [8]: 19.1 µM
- TGI [3]: 18.2 µM
- TGI [4]: 26.1 µM
- TGI [9]: 26 µM
- TGI [5]: > 41 µM
- TGI [6]: 12.5 µM
- GI50 [7]: 1.13 µM
- TGI [7]: 5.08 µM and 6.25 µM

SMILES: CCOC(=O)CCc1c(C)c2c(OC)cc(OC)cc2oc1=O
- TGI [2]: > 100 µM
- TGI [8]: > 100 µM
- TGI [3]: > 100 µM
- TGI [4]: > 100 µM
- TGI [5]: > 100 µM
- TGI [6]: > 100 µM
- TGI [7]: > 100 µM

SMILES: OC1(C(Sc2ccccc2)Sc2ccccc2)CCCCCC1
- TGI [1]: 67 µM
- TGI [2]: 89.5 µM
- TGI [8]: 59.5 µM
- TGI [3]: 66.2 µM
- TGI [4]: 64.5 µM
- TGI [9]: 53.5 µM
- TGI [5]: > 100 µM
- TGI [6]: > 100 µM
- TGI [7]: 69.4 µM

SMILES: COc1ccccc1/C=C1\CCC(Cc2ccccc2)(CN(C)C)C1=O (stereo unspecified)
- TGI [10]: > 100 µM
- TGI [1]: 3.53 µM
- TGI [2]: > 100 µM
- TGI [8]: > 69 µM
- TGI [3]: 45.5 µM
- TGI [4]: > 100 µM
- TGI [9]: > 42.2 µM
- TGI [5]: > 23.2 µM
- TGI [6]: > 58.9 µM
- TGI [7]: > 100 µM

SMILES: NNC(=O)/C(NC(=O)c1ccccc1)=C(\N)c1cccc([N+](=O)[O-])c1
- TGI [1]: > 100 µM
- TGI [2]: > 100 µM
- TGI [8]: > 100 µM
- TGI [3]: > 100 µM
- TGI [4]: > 100 µM
- TGI [9]: > 100 µM
- TGI [5]: > 100 µM
- TGI [6]: > 100 µM
- TGI [7]: > 100 µM

SMILES: Cc1ccccc1N(CCC#N)C1=NN(C(=O)CC(=O)Nc2ccc(Cl)cc2)C(c2ccccc2)C1 (stereo unspecified)
- TGI [1]: > 100 µM
- TGI [2]: > 100 µM
- TGI [8]: > 100 µM
- TGI [3]: > 100 µM
- TGI [4]: > 100 µM
- TGI [9]: > 100 µM
- TGI [5]: > 100 µM
- TGI [6]: > 100 µM
- TGI [7]: > 100 µM

SMILES: CC(C)(C)N1CC1CNC(=O)C(=O)NCC1CN1C(C)(C)C (stereo unspecified)
- TGI [10]: > 100 µM
- TGI [1]: 13.3 µM
- TGI [2]: 21.1 µM
- TGI [8]: 3.68 µM
- TGI [3]: 7.29 µM
- TGI [4]: 13.7 µM
- TGI [9]: 13.4 µM
- TGI [6]: 2.62 µM
- TGI [7]: 11.1 µM

SMILES: O=c1cccccc1[O-].O=c1cccccc1[O-].O=c1cccccc1[O-].[Nd+3]
- TGI [2]: > 100 µM
- GI50 [8]: 32 µM
- TGI [8]: 95.3 µM
- GI50 [3]: 38.7 µM
- TGI [3]: > 100 µM
- TGI [4]: > 100 µM
- TGI [9]: > 100 µM
- GI50 [5]: 20.6 µM
- TGI [5]: > 100 µM
- TGI [7]: > 100 µM

SMILES: CC(=O)OCc1nnn2c1C(OC(C)=O)CC2 (stereo unspecified)
- TGI [1]: > 100 µM
- TGI [2]: > 100 µM
- TGI [3]: > 100 µM
- TGI [4]: > 100 µM
- TGI [9]: > 100 µM
- TGI [5]: > 100 µM
- TGI [6]: > 100 µM
- TGI [7]: > 100 µM

SMILES: C[C@@H](NC1CCCC[C@@H]1O)c1ccccc1 (stereo partly specified)
- TGI [2]: > 100 µM
- TGI [8]: > 100 µM
- TGI [3]: > 100 µM
- TGI [4]: > 100 µM
- TGI [9]: > 100 µM
- TGI [5]: > 100 µM
- TGI [6]: > 100 µM
- TGI [7]: > 100 µM

SMILES: OC1CC(O)O[C@H](c2ccccc2)C1 (stereo partly specified)
- TGI [1]: > 100 µM
- TGI [2]: > 100 µM
- TGI [8]: > 100 µM
- TGI [4]: > 100 µM
- TGI [5]: > 100 µM
- TGI [6]: > 100 µM
- TGI [7]: > 100 µM

SMILES: Cc1[nH]c(=O)n2c(C)nnc2c1C(=O)O
- TGI [1]: > 100 µM
- TGI [8]: > 100 µM
- TGI [3]: > 100 µM
- TGI [4]: > 100 µM
- TGI [9]: > 100 µM
- TGI [5]: > 100 µM
- TGI [6]: > 100 µM

SMILES: CC(=O)OC(C(=O)[O][Ge]([CH3])([CH3])[CH3])c1ccccc1 (stereo unspecified)
- GI50 [2]: > 100 µM
- TGI [2]: > 100 µM
- GI50 [8]: > 100 µM
- TGI [8]: > 100 µM
- GI50 [3]: > 100 µM
- TGI [3]: > 100 µM
- GI50 [4]: > 100 µM
- TGI [4]: > 100 µM
- GI50 [9]: > 100 µM
- TGI [9]: > 100 µM
- GI50 [5]: > 100 µM
- TGI [5]: > 100 µM
- GI50 [6]: > 100 µM
- TGI [6]: > 100 µM
- GI50 [7]: > 100 µM
- TGI [7]: > 100 µM

SMILES: Cc1c(O)cccc1C(=O)N[C@@H](CSc1ccccc1)[C@H](O)CN1C[C@H]2CCCC[C@H]2C[C@H]1C(=O)NC(C)(C)C
- GI50 [10]: 4.82 µM and 4.87 µM
- TGI [10]: > 58 µM and 20.3 µM
- GI50 [1]: 2.21 µM
- TGI [1]: 5.48 µM
- GI50 [2]: 3.01 µM and 4.94 µM
- TGI [2]: 10.8 µM and 22.8 µM
- GI50 [8]: 7.26 µM and 5 µM
- TGI [8]: 21.3 µM and 14.6 µM
- GI50 [3]: 3.79 µM and 4.25 µM
- TGI [3]: 14.5 µM and 14.7 µM
- GI50 [4]: 3.02 µM and 5.69 µM
- TGI [4]: 13.1 µM and 17.1 µM
- GI50 [9]: 4.29 µM and 9.5 µM
- TGI [9]: 23.9 µM and > 59.7 µM
- GI50 [7]: 3.66 µM and 6.84 µM
- TGI [7]: 13.8 µM and 24.7 µM

SMILES: COc1cccc2nc(Nc3cccc(NC(=O)c4ccc(N5CCN(C)CC5)c(C(F)(F)F)c4)c3)ccc12
- GI50 [10]: 1.07 µM
- TGI [10]: 2.93 µM
- GI50 [1]: 1.13 µM
- TGI [1]: 3.45 µM
- GI50 [2]: 1.43 µM
- TGI [2]: 5.03 µM
- GI50 [8]: 0.856 µM
- TGI [8]: 1.74 µM
- GI50 [3]: 0.885 µM
- TGI [3]: 1.68 µM
- GI50 [4]: 1.53 µM
- TGI [4]: 4.57 µM
- GI50 [9]: 1.73 µM
- TGI [9]: 6.11 µM
- GI50 [7]: 1.36 µM
- TGI [7]: 3.51 µM

SMILES: CC(=O)OC1C(O)C(C)OC(OC2C(OC(=O)C3CCC4C(C3)OC3(CC(OC(=O)/C=C/c5ccccc5)C(C)CO3)C43CO3)OC(C)C(O)C2OC(C)=O)C1O (stereo unspecified)
- TGI [10]: 0.00669 µM
- TGI [1]: > 2.5 µM
- TGI [2]: 0.333 µM
- TGI [8]: 0.0519 µM
- TGI [3]: 0.0493 µM
- TGI [4]: 0.648 µM
- TGI [9]: 0.0928 µM
- TGI [6]: 0.0665 µM
- TGI [7]: 0.0811 µM

SMILES: CC1=C2CC[C@@]3(C)C(=CCC3O)C2(C)CCC1=O (stereo partly specified)
- TGI [1]: > 100 µM
- TGI [2]: > 100 µM
- TGI [8]: > 100 µM
- TGI [3]: > 100 µM
- TGI [4]: > 100 µM
- TGI [9]: > 100 µM
- TGI [5]: > 100 µM
- TGI [6]: > 100 µM
- TGI [7]: > 100 µM
